According to patent US20240033208A1, “BOTANICAL EXTRACT BLEND FOR USE IN SKIN CARE” (Shaklee Corporation, priority 2022, published 2024):

Tests used:
human recombinant MMP-1 = molecular target: T1, human recombinant MMP-1 (Homo sapiens, UniProt P03956); assay: Collagenase (MMP-1) inhibition (thiopeptolide/DTNB, 412 nm); format: biochemical
T1 sequence (P03956 100-469): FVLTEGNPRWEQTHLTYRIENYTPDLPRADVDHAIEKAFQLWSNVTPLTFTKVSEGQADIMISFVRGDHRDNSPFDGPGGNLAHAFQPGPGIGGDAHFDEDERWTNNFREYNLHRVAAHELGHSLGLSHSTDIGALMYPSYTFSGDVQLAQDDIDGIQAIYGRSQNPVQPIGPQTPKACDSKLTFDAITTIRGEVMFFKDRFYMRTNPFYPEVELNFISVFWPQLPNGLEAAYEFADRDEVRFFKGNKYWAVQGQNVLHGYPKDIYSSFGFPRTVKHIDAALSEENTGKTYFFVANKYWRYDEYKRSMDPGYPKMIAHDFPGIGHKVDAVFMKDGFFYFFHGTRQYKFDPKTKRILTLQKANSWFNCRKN
Excerpt: Matrix Metalloproteinase-1 (MMP-1) is an extracellular protease with an approximate molecular weight of 52-56 kD in its latent form. Upon cleavage of the proenzyme, the 22-46 kD MMP-1 becomes an active enzyme and can degrade many substrates including collagen, gelatin, and entactin. In human skin, increased MMP-1 activity can be induced via some disease states, exposure to UV irradiation or as part of the natural aging process. This can result in an imbalanced state where the degradation of collagen by MMP-1 exceeds its rate of replacement. Therefore, materials that inhibit MMP-1 activity can be beneficial for skin care. To screen inhibitors of MMP-1, human recombinant MMP-1 was incubated in the presence of a thiopeptolide substrate, potential inhibitors, and 5,5′-dithiobis(2-nitrobenzoic acid) (DTNB). When the thiopeptolide substrate is broken down by MMP-1, it releases a sulfhydryl group that can react with DTNB and form 2-nitro-5-thiobenzoic acid, which can be detected spectrophotometrically at 412 nm. Thus, in the presence of inhibitors, absorbance will be decrease relative to the non-inhibited enzyme.

[1] = test system: MatTek EpiDerm tissue (UVB induced CPD formation in genomic DNA); assay: Cyclobutane pyrimidine dimer (CPD) assay, UVB, ELISA; format: cell-based, human; settings: for CPD in genomic DNA: pretreated overnight before UVB
Procedure: The testing system used for this assay was the MatTek EpiDerm, a skin model which consists of normal human-derived epidermal keratinocytes cultured to form a multilayered, highly differentiated model of the human epidermis. For this study, tissues were treated topically either overnight with the test materials prior to UVB exposure (pretreat group to assess prevention). Following treatment, DNA was extracted from the EpiDerm tissues and assayed for CPD content using an ELISA based method.

elastase = assay: Elastase inhibition (fibroblast lysate, STANA substrate, 405 nm); format: biochemical, human
Procedure: Human dermal fibroblasts were cultured and used as a source of the elastase enzyme. Elastase was partially purified from fibroblasts by lysing the cells in an elastase buffer and retaining the soluble portion of the lysate. Portions of this fibroblast lysate were then be incubated with test materials and a synthetic elastase substrate, Suc-([…])-p-Nitroaniline (STANA). Elastase acts upon the substrate, releasing p-nitroaniline, which can be detected with a spectrophotometer by measuring absorbance at a wavelength of 405 nm. Inhibition of elastase enzyme is indicated by a decrease in the amount of released p-nitroaniline as compared to the uninhibited enzyme.

[2] = test system: AGE formation in collagen; assay: Collagen AGE prevention assay; format: biochemical
Procedure: AGE Prevention—50 μl of ice-cold collagen solution was added to the wells of a 96 well plate. The plate was incubated overnight at 37° C. to allow the collagen solution to gel. On the following day, 40 μl of either test material (prepared in assay buffer), aminoguanidine (positive control), or assay buffer (negative control) was added to the plate. After the materials were added, 10 μl of a 500 mM glyceraldehyde solution was added to all of the wells. The plate was then read using a fluorometer (355 nm excitation and 405 nm emission) and then incubated for 24 hours in a humidified incubator at 37C. On the following day the plate was read again. AGE formation was determined by subtracting the […] for each sample.

[3] = test system: preexisting AGEs in collagen; assay: Collagen AGE reduction assay; format: biochemical
Procedure: AGE Reduction—50 μl of ice-cold collagen solution was added to the wells of a 96 well plate. The plate was then incubated overnight at 37C to allow the collagen solution to gel. On the following day, 10 μl of a 500 mM glyceraldehyde solution was added to all of the wells and the plate was incubated for 24 hours in a humidified incubator at 37° C. On the following day 40 μl of either test material (prepared in assay buffer), aminoguanidine (positive control), or assay buffer (negative control) was added to the plate. The plate was then read using a fluorometer (355 nm excitation and 405 nm emission) and then incubated again for 24 hours in a humidified incubator at 37C. On the following day the plate was read again. AGE formation was determined by subtracting the initial fluorescent measurement from the final fluorescent measurement for each sample.

[4] = ingredients tested individually at the concentrations used in the blends

## COc1ccc(S(=O)(=O)N(CC(=O)NO)CC(C)C)cc1 [NNGH, reference compound]
Human recombinant MMP-1; 2 uM
  Percent Inhibition (collagenase): 94 ± 3%

## Cc1c(C)c2c(c(C)c1O)CCC(C)(C(=O)O)O2 (stereo not drawn) [Trolox, reference compound]
[1]; 150 ug/ml
  % Prevention of genomic DNA CPD formation: 67%
  CPD in genomic DNA: 1.439 ± 0.088 ng/mL

## CC(C)C[C@H](NP(=O)(O)O[C@@H]1O[C@@H](C)[C@H](O)[C@@H](O)[C@H]1O)C(=O)N[C@@H](Cc1c[nH]c2ccccc12)C(=O)O [Phosphoramidon, reference compound]
elastase; 0.2 mM
  Percent Inhibition (elastase): 97 ± 0%

## N=C(N)NN [Aminoguanidine, aminoguanidine, reference compound]
[2]; 8 mM
  Percent AGE Prevention: 56.8 ± 0.5%
[3]; 8 mM
  Percent AGE Reduction: 33.4 ± 3.3%

## Oc1ccc(/C=C/c2cc(O)cc(O)c2)cc1 [Resveratrol, 5-[(E)-2-(4-Hydroxyphenyl)ethen-1-yl]benzene-1,3-diol]
[1]; 0.0375%
  % Prevention of genomic DNA CPD formation: 63%
  CPD in genomic DNA: 1.601 ± 0.180 ng/mL
[1]; 0.075%
  % Prevention of genomic DNA CPD formation: 75%
  CPD in genomic DNA: 1.115 ± 0.085 ng/mL
[2]; 0.0375%
  Percent AGE Prevention: 20.8 ± 2.4%
[2]; 0.075%
  Percent AGE Prevention: 38.4 ± 7.1%
[2]; [4]
  preventing AGE formation (in words): significantly effective
[3]; 0.0375%
  Percent AGE Reduction: 28.2 ± 1.2%
[3]; 0.075%
  Percent AGE Reduction: 32.8 ± 2.8%
[3]; [4]
  reducing existing AGEs (in words): significantly effective
Human recombinant MMP-1; 0.075%
  Percent Inhibition (collagenase): 4 ± 0%
Human recombinant MMP-1; 0.08%
  Percent Inhibition (collagenase): 7 ± 1%
elastase; 0.075%
  Percent Inhibition (elastase): 30 ± 3%
elastase; 0.08%
  Percent Inhibition (elastase): 33 ± 2%
elastase; summary of Table 10
  elastase inhibition (in words): effective at inhibiting elastase activity on its own
